The values that follow come from publication PMC7284125, “Identification of annotated bioactive molecules that impair motility of the blood fluke Schistosoma mansoni” (International Journal for Parasitology: Drugs and Drug …, 2020).

The test system of the first series is S. mansoni schistosomulae. The series can be described thus: Motility assay on schistosomulae (pixel displacement, relative to DMSO control). It is filed as cell-based, Schistosoma mansoni. The conditions noted are these: schistosomulae, secondary screen, 24h exposure, read at D1, 1 µM. How it is done: Puerto Rican strain Biomphalaria glabrata snails infected with S. mansoni were kindly provided by Dr. Fred Lewis (Biomedical Research Institute and BEI Resources, MD, USA). Schistosomulae were obtained by exposing six to eight weeks-old snails to continuous light for 2 h at 32 °C. The resulting suspension of cercaria was then mechanically transformed as described ([Lewis, 2001]) and cultured in Opti-MEM/antibiotics (Thermo Fisher Scientific, Waltham, MA) containing 100 μg/mL streptomycin and 100 units/ml penicillin supplemented with 5% fetal bovine serum (FBS; Thermo Fisher). Parasite cultures were incubated at 37 °C with 5% CO2 for at least 10 days with no apparent loss of viability. At this point, animals with internal dark granulations and with no observable body contraction/relaxation cycles were considered dead.
(§1) Schistosomulae (200/well) and adult parasites (unpaired worms) were maintained in 300 μL OPTI-MEM with 5% dialyzed FBS (without antibiotics) and exposed to compounds at 1 and 10 μM for 24 h. A kinetic assay consisting of 1, 3, 6 and 12 h incubation times was performed on selected hits by motility monitoring using a stereo microscope (SMZ1270, Nikon) for adults and an inverted microscope for schistosomulae (eclipse TE2000-U, Nikon) connected to a monochrome camera (DS-Qi2, Nikon) for image acquisition. Images were recorded at a rate of 10 frames/s for a period of 1 min and videos were analyzed using ImageJ software (version 1.41, NIH, USA). Parasite movement quantification and data analysis protocols were applied using the pixel displacement method ([Patocka et al., 2014]; [Rashid et al., 2015]) and compared to control parasites treated with DMSO. Parasites were then washed several times in Opti-MEM, 5% FBS and incubated up to an additional three days (schistosomulae) or five days (adult worms) at 37 °C, 5% CO2 and motility was recorded as described above.
`C#CC[C@H](c1nc2cc(Cl)ccc2c(=O)n1Nc1ccccc1)N(CCCN)C(=O)c1cccc(Cl)c1F` [ARQ 621] had a Fractional motility of 2.11.
On the same count and under the same terms, under `O=C(NC(NC(=S)Nc1ccc(F)c([N+](=O)[O-])c1)C(Cl)(Cl)Cl)C(c1ccccc1)c1ccccc1` (centres unmarked) [CGK 733] stands 0.41; under `NS(=O)(=O)C#Cc1ccccc1` [Pifithrin-μ], 1.37; under `Cc1cnc(-c2cc(N3CCN(C(=O)CCS(C)(=O)=O)CC3)ncc2Cl)c(C)c1` [PF-5274857], -0.26.
Compound `CCCCCCCCCCCCCCCCn1cc[n+](Cc2ccccc2)c1C.[I-]` [NH125] came in with a Fractional motility of 1.58.
Still for that read-out and setting: under `O=C(/C=C/c1ccc2ccccc2n1)c1ccncc1` [PFK15] stands 1.64.

Staying with this series, now noted: schistosomulae, secondary screen, 24h exposure, read at D1, 10 µM.
In turn, `C#CC[C@H](c1nc2cc(Cl)ccc2c(=O)n1Nc1ccccc1)N(CCCN)C(=O)c1cccc(Cl)c1F` [ARQ 621] showed a Fractional motility of 2.52.
Same read-out and setting: next, `O=C(NC(NC(=S)Nc1ccc(F)c([N+](=O)[O-])c1)C(Cl)(Cl)Cl)C(c1ccccc1)c1ccccc1` (centres unmarked) [CGK 733]: -0.71; `NS(=O)(=O)C#Cc1ccccc1` [Pifithrin-μ]: 2.61; `Cc1cnc(-c2cc(N3CCN(C(=O)CCS(C)(=O)=O)CC3)ncc2Cl)c(C)c1` [PF-5274857]: 0.15.
On the same count and under the same terms, next, `CCCCCCCCCCCCCCCCn1cc[n+](Cc2ccccc2)c1C.[I-]` [NH125]: -0.66.
Same read-out and setting: under `O=C(/C=C/c1ccc2ccccc2n1)c1ccncc1` [PFK15] stands 3.41.

The series is the same for the next values; noted with them: schistosomulae, secondary screen, 24h exposure, read at D5, 1 µM.
In the case of `O=C(NC(NC(=S)Nc1ccc(F)c([N+](=O)[O-])c1)C(Cl)(Cl)Cl)C(c1ccccc1)c1ccccc1` (centres unmarked) [CGK 733], the Fractional motility is -0.07.
Same read-out and setting: under `NS(=O)(=O)C#Cc1ccccc1` [Pifithrin-μ] stands -0.80; under `Cc1cnc(-c2cc(N3CCN(C(=O)CCS(C)(=O)=O)CC3)ncc2Cl)c(C)c1` [PF-5274857], -0.49; under `CCCCCCCCCCCCCCCCn1cc[n+](Cc2ccccc2)c1C.[I-]` [NH125], -0.08.
On the same count and under the same terms, under `O=C(/C=C/c1ccc2ccccc2n1)c1ccncc1` [PFK15] stands -0.50.

Still in this series, the particulars now being: schistosomulae, secondary screen, 24h exposure, read at D5, 10 µM.
`O=C(NC(NC(=S)Nc1ccc(F)c([N+](=O)[O-])c1)C(Cl)(Cl)Cl)C(c1ccccc1)c1ccccc1` (centres unmarked) [CGK 733]: the Fractional motility is -0.90.
With `NS(=O)(=O)C#Cc1ccccc1` [Pifithrin-μ], the Fractional motility is given as -1.00.
Same read-out and setting: under `Cc1cnc(-c2cc(N3CCN(C(=O)CCS(C)(=O)=O)CC3)ncc2Cl)c(C)c1` [PF-5274857] stands 4.02.
The same measure, in the same setting: next, `CCCCCCCCCCCCCCCCn1cc[n+](Cc2ccccc2)c1C.[I-]` [NH125]: -0.55.
On the same count and under the same terms, next, `O=C(/C=C/c1ccc2ccccc2n1)c1ccncc1` [PFK15]: -0.80.

A further series relates to S. mansoni adult worms. Description: Motility assay on adult parasites (pixel displacement, relative to DMSO control). It is filed as cell-based, Schistosoma mansoni. Particulars: adults, 10 μM, long-term after washout. How it is done:
Adult parasites were collected from 40 day-old female CD1 mice (Charles River) previously inoculated by the tail infection method ([Lewis, 2001]). Six weeks post-infection, mice were sacrificed, and adult worms extracted after perfusion of in the hepatic portal vein and mesenteric venules ([Lewis, 2001]). Animal procedures were reviewed and approved by the Facility Animal Care Committee of McGill University (Protocol No. 3346) and were conducted in accordance with the guidelines of the Canadian Council on Animal Care.
as §1
Turning to `CCCCCCCCCCCCCCCCn1cc[n+](Cc2ccccc2)c1C.[I-]` [NH125], the “motility phenotype in words” value was “Significant hypomotility”.

The same series, now with this note: secondary screen, 10 μM, D1, Female adult worms.
Consider `C#CC[C@H](c1nc2cc(Cl)ccc2c(=O)n1Nc1ccccc1)N(CCCN)C(=O)c1cccc(Cl)c1F` [ARQ 621], for which the Fractional motility is recorded as -0.48.
On the same count and under the same terms, under `O=C(NC(NC(=S)Nc1ccc(F)c([N+](=O)[O-])c1)C(Cl)(Cl)Cl)C(c1ccccc1)c1ccccc1` (centres unmarked) [CGK 733] stands -0.10; under `NS(=O)(=O)C#Cc1ccccc1` [Pifithrin-μ], -0.0347.
On the same count and under the same terms, next, `Cc1cnc(-c2cc(N3CCN(C(=O)CCS(C)(=O)=O)CC3)ncc2Cl)c(C)c1` [PF-5274857]: -0.02; `CCCCCCCCCCCCCCCCn1cc[n+](Cc2ccccc2)c1C.[I-]` [NH125]: -0.74.
`O=C(/C=C/c1ccc2ccccc2n1)c1ccncc1` [PFK15] came in with a Fractional motility of -0.30.

The series is the same for the next values; noted with them: secondary screen, 10 μM, D1, Male adult worms.
`C#CC[C@H](c1nc2cc(Cl)ccc2c(=O)n1Nc1ccccc1)N(CCCN)C(=O)c1cccc(Cl)c1F` [ARQ 621]: the Fractional motility was 0.41.
In turn, `O=C(NC(NC(=S)Nc1ccc(F)c([N+](=O)[O-])c1)C(Cl)(Cl)Cl)C(c1ccccc1)c1ccccc1` (centres unmarked) [CGK 733] showed a Fractional motility of 0.12.
In turn, `NS(=O)(=O)C#Cc1ccccc1` [Pifithrin-μ] had a Fractional motility of -0.36.
Still for that read-out and setting: next, `Cc1cnc(-c2cc(N3CCN(C(=O)CCS(C)(=O)=O)CC3)ncc2Cl)c(C)c1` [PF-5274857]: -0.62.
Still for that read-out and setting: under `CCCCCCCCCCCCCCCCn1cc[n+](Cc2ccccc2)c1C.[I-]` [NH125] stands 0.53.
Same read-out and setting: next, `O=C(/C=C/c1ccc2ccccc2n1)c1ccncc1` [PFK15]: 4.15.

Still in this series, the particulars now being: secondary screen, 10 μM, D5, Female adult worms.
`C#CC[C@H](c1nc2cc(Cl)ccc2c(=O)n1Nc1ccccc1)N(CCCN)C(=O)c1cccc(Cl)c1F` [ARQ 621]: the Fractional motility is recorded as -0.43.
In turn, `O=C(NC(NC(=S)Nc1ccc(F)c([N+](=O)[O-])c1)C(Cl)(Cl)Cl)C(c1ccccc1)c1ccccc1` (centres unmarked) [CGK 733] showed a Fractional motility of -0.83.
The same measure, in the same setting: next, `NS(=O)(=O)C#Cc1ccccc1` [Pifithrin-μ]: -0.90; `Cc1cnc(-c2cc(N3CCN(C(=O)CCS(C)(=O)=O)CC3)ncc2Cl)c(C)c1` [PF-5274857]: -0.13.
On the same count and under the same terms, under `CCCCCCCCCCCCCCCCn1cc[n+](Cc2ccccc2)c1C.[I-]` [NH125] stands -0.89; under `O=C(/C=C/c1ccc2ccccc2n1)c1ccncc1` [PFK15], -0.50.

Still in this series, the particulars now being: secondary screen, 10 μM, D5, Male adult worms.
For the compound `C#CC[C@H](c1nc2cc(Cl)ccc2c(=O)n1Nc1ccccc1)N(CCCN)C(=O)c1cccc(Cl)c1F` [ARQ 621], the Fractional motility amounted to 0.0454.
The same measure, in the same setting: next, `O=C(NC(NC(=S)Nc1ccc(F)c([N+](=O)[O-])c1)C(Cl)(Cl)Cl)C(c1ccccc1)c1ccccc1` (centres unmarked) [CGK 733]: -0.19; `NS(=O)(=O)C#Cc1ccccc1` [Pifithrin-μ]: -0.23; `Cc1cnc(-c2cc(N3CCN(C(=O)CCS(C)(=O)=O)CC3)ncc2Cl)c(C)c1` [PF-5274857]: -0.56.
The same measure, in the same setting: under `CCCCCCCCCCCCCCCCn1cc[n+](Cc2ccccc2)c1C.[I-]` [NH125] stands -0.87.
On the same count and under the same terms, next, `O=C(/C=C/c1ccc2ccccc2n1)c1ccncc1` [PFK15]: 0.98.

The subject of the next series is S. mansoni schistosomulae. Description: Phenotypic primary screen assay on schistosomulae (phenotype; viability by methylene blue dye exclusion). It is filed as cell-based, Schistosoma mansoni. The conditions noted are these: three-day-old schistosomulae, 10 μM, 24 h; calculated 5 days post compound exposure. As to the method:
Puerto Rican strain Biomphalaria glabrata snails infected with S. mansoni were kindly provided by Dr. Fred Lewis (Biomedical Research Institute and BEI Resources, MD, USA). Schistosomulae were obtained by exposing six to eight weeks-old snails to continuous light for 2 h at 32 °C. […] At this point, animals with internal dark granulations and with no observable body contraction/relaxation cycles were considered dead.
Schistosomulae were monitored under a stereo microscope (SMZ1270, Nikon). Phenotypic observations were made by analyzing schistosomulae, 24 h after drug addition to assess any immediate effect and five days post-compound exposure to observe long-term impacts on both the movement and overall body shape in comparison to control animals exposed to DMSO only.
For `C#CC[C@H](c1nc2cc(Cl)ccc2c(=O)n1Nc1ccccc1)N(CCCN)C(=O)c1cccc(Cl)c1F` [ARQ 621], the “Viability (%)” value is on record as 13%.
On the same count and under the same terms, next, `O=C(NC(NC(=S)Nc1ccc(F)c([N+](=O)[O-])c1)C(Cl)(Cl)Cl)C(c1ccccc1)c1ccccc1` (centres unmarked) [CGK 733]: 62,5%; `NS(=O)(=O)C#Cc1ccccc1` [Pifithrin-μ]: 0%.
Same read-out and setting: next, `Cc1cnc(-c2cc(N3CCN(C(=O)CCS(C)(=O)=O)CC3)ncc2Cl)c(C)c1` [PF-5274857]: 96.5%; `CCCCCCCCCCCCCCCCn1cc[n+](Cc2ccccc2)c1C.[I-]` [NH125]: 18%.
On to `O=C(/C=C/c1ccc2ccccc2n1)c1ccncc1` [PFK15], for which the “Viability (%)” value is 63%.

The series is the same for the next values; noted with them: three-day-old schistosomulae, 10 μM, 24 h; estimated 5 days post compound exposure.
As for `C#CC[C@H](c1nc2cc(Cl)ccc2c(=O)n1Nc1ccccc1)N(CCCN)C(=O)c1cccc(Cl)c1F` [ARQ 621], the Phenotype result is “dark, granulated”.
Still for that read-out and setting: next, `O=C(NC(NC(=S)Nc1ccc(F)c([N+](=O)[O-])c1)C(Cl)(Cl)Cl)C(c1ccccc1)c1ccccc1` (centres unmarked) [CGK 733]: “dark, granulated, some big”; `NS(=O)(=O)C#Cc1ccccc1` [Pifithrin-μ]: “big , dark, granulated”.
Same read-out and setting: under `Cc1cnc(-c2cc(N3CCN(C(=O)CCS(C)(=O)=O)CC3)ncc2Cl)c(C)c1` [PF-5274857] stands “granulated”; under `CCCCCCCCCCCCCCCCn1cc[n+](Cc2ccccc2)c1C.[I-]` [NH125], “big, dark, granulated”; under `O=C(/C=C/c1ccc2ccccc2n1)c1ccncc1` [PFK15], “dark, granulated”.
